Consider 14 compounds from patent publication US3985888A, “Methods of inducing sedation using certain spiroalkanone-imides” (Richardson-Merrell Inc., priority 1971, dated 1976).

A word on the LD50: it is the dose at which mortality reaches 50%.

Data set [1] can be described thus: sedative / central nervous system depressant properties. The class given is in vivo. To be noted: in words.
In data set [2] the test system is mice. As to the kind of experiment: spontaneous locomotor activity in the photocell chamber. The class given is in vivo. The following applies: for ED50: Mus musculus, read-out: Spontaneous Locomotor Activity: Depressant Dose 50% (dose reducing activity to 50 percent of control).
Data set [3] can be described thus: motor coordination, rotorod method. The class given is in vivo. The following applies: mouse, mice; for TD50: read-out: Loss of Motor Coordination, ED50; for NOAEL: read-out: dose until which there is no significant impairment of motor coordination (rotorod). The protocol: There is no significant impairment of motor coordination as determined with the rotorod method (Kinnard, W. J. and Carr, C. J., J. Pharmacol. Exptl. Therap., 121: 354 (1957)), on the other hand, until doses of 900 mg/kg, p.o. or 500-900 mg/kg i.p. have been administered.

Data set [4] has as its system mice. As to the kind of experiment: protection against maximal electroshock. The class given is in vivo. The following applies: Mus musculus, read-out: Anticonvulsant Protective Dose, 50% (Maximum Electroshock). Background: The maximal electroshock test induces tonic seizures with an electrical stimulus.
Data set [5] has as its system mice. The data set can be described thus: prolongation of loss of the righting reflex produced by barbital or hexobarbital. The following applies: i.p., appropriate doses of barbital or hexobarbital. It counts as in vivo.
A short description of another data set: acute LD50. To be noted: mouse, in vivo, mice.

Entries after “also recorded” stand apart in the source; their conditions may differ. Like-named read-outs stand apart in the source and are kept apart here. A value given as a limit tells only on which side of the number the result lay.

As for `COc1ccc2c(c1)C(=O)CCC21CCC(=O)N(C)C1=O` (centres unmarked) [Example 8, 2,3-dihydro-6-methoxy-1'-methylspiro[naphthalene-1(4H),3'-piperidine]-2',4,6'-trione], the sedative properties result in data set [1] is recorded as “has sedative properties”.
With `COc1cc2c(cc1OC)C1(CCC(=O)NC1=O)CCC2=O` (centres unmarked) [Example 11, 2,3-dihydro-6,7-dimethoxyspiro-[naphthalene-1(4H),3'-piperidine]-2',4,6'-trione], in data set [1], the sedative properties result is “has sedative properties”.
In the case of `CN1C(=O)CCC2(CCC(=O)c3cc(Cl)ccc32)C1=O` (centres unmarked) [Example 18, 6-chloro-2,3-dihydro-1'-methylspiro[naphthalene-1(4H),3'-piperidine]-2',4,6'-trione], the ED50 in the data set on mice [2] (po) is 13 mg/kg. In addition, in the data set with mice [2] (in words, as shown in the table), the “activity compared with the known compound (Example 1)” value is “substantially greater activity”. The TD50 in data set [3] (oral) came to 285 mg/kg. Also, the sedative properties entry in data set [1] was “has sedative properties; also recorded: particularly useful as a sedative”.
Regarding `CCN1C(=O)CCC2(CCC(=O)c3ccccc32)C1=O` (centres unmarked) [Example 6, 1'-ethyl-2,3-dihydrospiro-[naphthalene-1(4H),3'-piperidine]-2',4,6'-trione], in data set [1], the sedative properties result is “has sedative properties”.
Regarding `Cc1cccc2c1C1(CCC(=O)NC1=O)CCC2=O` (centres unmarked) [Example 15, 2,3-dihydro-8-methylspiro-[naphthalene-1(4H),3'-piperidine]-2',4,6' -trione], the sedative properties entry in data set [1] is “has sedative properties”.
For `O=C1CCC2(CCC(=O)c3cc(Cl)ccc32)C(=O)N1` (centres unmarked) [Example 17, 6-chloro-2,3-dihydrospiro[naphthalene-1(4H),3'-piperidine]-2',4,6'-trione], in data set [1], the sedative properties entry is on record as “has sedative properties”.
Turning to `Cc1cccc2c1C1(CCC2=O)CCC(=O)N(C)C1=O` (centres unmarked) [Example 16, 2,3-dihydro-1',8-dimethylspiro-[naphthalene-1(4H),3'-piperidine]-2',4,6'-trione], in data set [1], the sedative properties entry is on record as “has sedative properties”.
On to `COc1cc2c(cc1OC)C1(CCC2=O)CCC(=O)N(C)C1=O` (centres unmarked) [Example 12, 2,3-dihydro-6,7-dimethoxy-1'-methylspiro-[naphthalene-1(4H),3'-piperidine]-2',4,6'-trione], for which the sedative properties entry in data set [1] is “has sedative properties”.
On to `O=C1CCC2(CCC(=O)c3cc([N+](=O)[O-])ccc32)C(=O)N1` (centres unmarked) [Example 19, 2,3-dihydro-6-nitrospiro-[naphthalene-1(4H),3'-piperidine]-2',4,6'-trione], for which the sedative properties result in data set [1] is “has sedative properties”.
As for `O=C1CCC2(CCC(=O)c3ccccc32)C(=O)N1` (centres unmarked) [Example 1, 2,3-dihydrospiro-[naphthalene-1(4H),3'-piperidine]-2',4,6'-trione], the ED50 in the data set with mice [2] (ip) was 50 to 60 mg/kg; in the data set on mice [2] (po) it was 150 mg/kg; in the data set with mice [4] (ip) it was 160 to 170 mg/kg; in the data set with mice [4] (po), 120 mg/kg. Besides, the “Spontaneous Locomotor Activity: Depressant Dose 50% (dose reducing activity to 50 percent of control)” value in the data set with mice [2] (i.p.) is reported as 50 to 60 mg/kg. For the same compound, the TD50 in data set [3] (ip, i.p.) was 500 to 900 mg/kg; in data set [3] (oral), 900 mg/kg. The NOAEL in data set [3] (ip, i.p.) was 500 to 900 mg/kg; in data set [3] (po, p.o.), ≥ 900 mg/kg. The “dose that significantly prolongs loss of the righting reflex produced by barbital or hexobarbital” value in the data set on mice [5] is “about 300 mg/kg”. The LD50 in the data set “acute LD50” (ip, intraperitoneally) is > 2000 mg/kg; in the data set “acute LD50” (po, orally), > 2000 mg/kg. In data set [1], the “central nervous system depressant properties” value is “central nervous system depressant properties”.
In the case of `Cc1ccc2c(c1)C(=O)CCC21CCC(=O)NC1=O` (centres unmarked) [Example 9, 2,3-dihydro-6-methylspiro[naphthalene-1(4H),3'-piperidine]-2',4,6'-trione], in data set [1], the sedative properties entry is on record as “has sedative properties”.
For `O=C1CC2(CCC(=O)c3ccccc32)C(=O)N1` (centres unmarked) [Example 14, 2,3-dihydrospiro[naphthalene-1(4H),3'-pyrrolidine]-2',4,5'-trione], the sedative properties entry in data set [1] is listed as “has sedative properties”.
As to `Cc1ccc2c(c1)C(=O)CCC21CCC(=O)N(C)C1=O` (centres unmarked) [Example 10, 1',6-dimethyl-2,3-dihydrospiro-[naphthalene-1(4H),3'-piperidine]-2',4,6'-trione], the sedative properties entry in data set [1] was “has sedative properties”.
`O=C1CCC2(CC(=O)c3ccccc32)C(=O)N1` (centres unmarked) [Example 13, spiro-[indane-1,3'-piperidine]-2,3,6'-trione]: the sedative properties entry in data set [1] was “has sedative properties”.
